# Laboratory results: patent publication US4681970A, “Bicyclo-substituted phenylacetonitrile derivatives” (G. D. Searle & Co., priority 1986, dated 1987)
# Counter-ions that a name gives are not always drawn.
# Tests used:
# [1] = system: spontaneously hypertensive rats (SHR); details: clinically useful reference agents; cited from earlier work
# [2] = system: spontaneously hypertensive rats (SHR); experiment: Antihypertensive activity in unanesthetized spontaneously hypertensive rats (SHR); type: in vivo, rat; details: for duration of antihypertensive effect: oral
# Procedure: The test procedures employed to measure these activities are described below.
# Male, unanesthetized spontaneously hypertensive rats (SHR), 11 to 16 weeks old were used in this test procedure. […]
# Initial mean arterial blood pressure was measured directly via a previously implanted arterial catheter immediately before administration of the test compound. Blood pressure readings were made at hourly intervals, 24 hours per day, for 3 days following oral administration of the test compound and at 5, 10, and 15 minutes following intravenous administration. […] Statistical comparisons were made using the analysis of variance test with two sided probability calculations.
# [3] = target: T1, Isolated thoracic aortic rings from the male SHR (Rattus norvegicus, UniProt P22002); experiment: Calcium antagonism in vascular smooth muscle (isolated thoracic aortic rings from male SHR); type: cell-based; details: read-out: pA2 Ca^++ Antagonism (converted)
# Procedure: Isolated thoracic aortic rings from the male SHR were utilized in this test procedure.
# The excised aortic ring was mounted in a tissue bath containing modified Kreb's solution. After depolarization of the tissue with potassium chloride (100 mM), calcium in cumulative concentrations of 1×10^-3 M, 3.2×10^-3 M, and 1×10^-2 M was injected into the bath to produce vascular smooth muscle contraction. The developed tension (in grams) was measured and control dose-response values obtained. After one hour of incubation with a test compound at 1×10^-6 M concentration, the same doses of calcium ions were repeated. The log dose-response curves of the control and after treatment were analyzed by linear regression. The pA2 value was calculated as a measure of calcium antagonism of the test compound. See Van Rossum, J. M., Arch. Int. Pharmacodyn, 143, 299-330, 1963.
# Calcium ions play an essential role in induction and maintenance of vascular smooth muscle contractility. In potassium depolarized vascular smooth muscle, calcium antagonists may block the entry of calcium ions into the cell or act by other mechanisms to inhibit the contractions induced by calcium ions. The inhibition of calcium ion--induced contraction of vascular smooth muscle is used to test compounds for vascular calcium antagonism. Cardiovascular diseases such as arrhythmias, angina-pectoris, hypertension, and peripheral vascular disease may be causally related to abnormalities in cellular handling of calcium ions.
# [4] = target: T1, Isolated thoracic aortic rings from the male SHR; details: reference drugs, potassium depolarized vascular smooth muscle; cited from earlier work
# anesthetized beagle dogs = experiment: Antihypertensive effect in anesthetized beagle dogs, i.v.; type: in vivo, beagle dog; details: for maximum hypotensive effect: compounds of the invention, verapamil and diltiazem compared
# [5] = system: atrial-ventricular conduction; details: compared with verapamil or diltiazem
# [6] = compared with verapamil hydrochloride; cited from earlier work
# [7] = ratio of the dose required to slow or block atrial-ventricular conduction to the dose required to lower arterial pressure by 20 mmHg
# [8] = ratio of the dose to decrease heart rate to the dose to lower arterial pressure
# [9] = SHR, 10 mg/kg/day for three days
# [10] = conscious SHR, 50 mg/kg/day for three days
# T1 sequence (P22002 whole entry): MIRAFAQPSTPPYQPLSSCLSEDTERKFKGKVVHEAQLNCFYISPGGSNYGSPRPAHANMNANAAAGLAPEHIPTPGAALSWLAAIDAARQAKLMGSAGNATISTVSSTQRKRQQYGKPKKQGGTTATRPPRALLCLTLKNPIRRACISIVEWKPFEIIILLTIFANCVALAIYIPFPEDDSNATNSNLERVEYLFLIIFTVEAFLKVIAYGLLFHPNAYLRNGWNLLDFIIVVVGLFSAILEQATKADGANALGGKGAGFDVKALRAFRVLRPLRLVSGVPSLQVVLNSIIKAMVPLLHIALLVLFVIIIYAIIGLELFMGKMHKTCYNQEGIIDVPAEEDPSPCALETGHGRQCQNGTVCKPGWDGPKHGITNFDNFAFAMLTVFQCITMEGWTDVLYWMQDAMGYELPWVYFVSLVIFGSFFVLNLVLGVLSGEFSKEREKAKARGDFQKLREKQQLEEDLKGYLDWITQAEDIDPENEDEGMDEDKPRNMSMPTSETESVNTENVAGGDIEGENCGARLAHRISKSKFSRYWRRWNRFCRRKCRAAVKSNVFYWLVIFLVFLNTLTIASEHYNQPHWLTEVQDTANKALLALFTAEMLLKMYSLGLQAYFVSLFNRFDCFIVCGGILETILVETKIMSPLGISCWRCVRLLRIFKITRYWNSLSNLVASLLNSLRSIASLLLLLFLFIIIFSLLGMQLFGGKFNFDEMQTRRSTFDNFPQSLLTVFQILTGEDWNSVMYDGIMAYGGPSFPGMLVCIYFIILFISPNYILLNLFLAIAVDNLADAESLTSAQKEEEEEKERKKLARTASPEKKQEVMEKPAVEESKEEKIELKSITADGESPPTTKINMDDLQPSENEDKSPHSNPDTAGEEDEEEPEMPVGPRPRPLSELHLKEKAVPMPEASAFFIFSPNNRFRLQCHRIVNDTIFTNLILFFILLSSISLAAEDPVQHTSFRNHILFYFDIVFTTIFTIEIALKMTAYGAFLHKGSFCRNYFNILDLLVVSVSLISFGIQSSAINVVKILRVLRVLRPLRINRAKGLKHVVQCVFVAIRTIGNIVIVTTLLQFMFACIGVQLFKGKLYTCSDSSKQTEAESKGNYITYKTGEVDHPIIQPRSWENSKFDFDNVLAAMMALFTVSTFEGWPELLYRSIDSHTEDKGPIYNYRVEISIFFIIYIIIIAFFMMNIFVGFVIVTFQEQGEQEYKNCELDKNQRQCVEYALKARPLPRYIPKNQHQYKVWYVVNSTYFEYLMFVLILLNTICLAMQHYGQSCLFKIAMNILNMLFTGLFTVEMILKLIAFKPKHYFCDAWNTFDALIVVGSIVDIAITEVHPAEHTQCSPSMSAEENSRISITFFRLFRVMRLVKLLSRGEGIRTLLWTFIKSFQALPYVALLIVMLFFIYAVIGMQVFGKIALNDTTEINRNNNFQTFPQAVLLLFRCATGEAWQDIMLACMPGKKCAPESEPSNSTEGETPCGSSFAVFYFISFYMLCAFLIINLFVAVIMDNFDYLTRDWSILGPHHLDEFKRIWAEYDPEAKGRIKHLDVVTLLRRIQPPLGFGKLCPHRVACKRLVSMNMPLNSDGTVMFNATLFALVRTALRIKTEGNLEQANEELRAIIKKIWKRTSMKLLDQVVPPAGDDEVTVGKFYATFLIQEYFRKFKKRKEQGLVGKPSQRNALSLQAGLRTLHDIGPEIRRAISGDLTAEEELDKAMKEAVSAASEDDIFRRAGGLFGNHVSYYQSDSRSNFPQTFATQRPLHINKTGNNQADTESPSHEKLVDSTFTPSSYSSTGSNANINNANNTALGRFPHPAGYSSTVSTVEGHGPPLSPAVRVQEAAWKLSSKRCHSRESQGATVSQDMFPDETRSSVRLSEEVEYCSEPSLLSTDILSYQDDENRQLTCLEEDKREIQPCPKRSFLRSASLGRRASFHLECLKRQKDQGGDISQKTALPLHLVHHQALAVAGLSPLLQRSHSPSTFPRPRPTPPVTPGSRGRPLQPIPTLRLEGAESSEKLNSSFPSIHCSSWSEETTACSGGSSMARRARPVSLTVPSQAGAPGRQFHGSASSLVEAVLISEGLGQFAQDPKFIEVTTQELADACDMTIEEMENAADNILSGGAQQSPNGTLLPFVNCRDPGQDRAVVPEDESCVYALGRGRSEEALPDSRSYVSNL
# T1 sequence (P54290 25-944 partner limits assumed): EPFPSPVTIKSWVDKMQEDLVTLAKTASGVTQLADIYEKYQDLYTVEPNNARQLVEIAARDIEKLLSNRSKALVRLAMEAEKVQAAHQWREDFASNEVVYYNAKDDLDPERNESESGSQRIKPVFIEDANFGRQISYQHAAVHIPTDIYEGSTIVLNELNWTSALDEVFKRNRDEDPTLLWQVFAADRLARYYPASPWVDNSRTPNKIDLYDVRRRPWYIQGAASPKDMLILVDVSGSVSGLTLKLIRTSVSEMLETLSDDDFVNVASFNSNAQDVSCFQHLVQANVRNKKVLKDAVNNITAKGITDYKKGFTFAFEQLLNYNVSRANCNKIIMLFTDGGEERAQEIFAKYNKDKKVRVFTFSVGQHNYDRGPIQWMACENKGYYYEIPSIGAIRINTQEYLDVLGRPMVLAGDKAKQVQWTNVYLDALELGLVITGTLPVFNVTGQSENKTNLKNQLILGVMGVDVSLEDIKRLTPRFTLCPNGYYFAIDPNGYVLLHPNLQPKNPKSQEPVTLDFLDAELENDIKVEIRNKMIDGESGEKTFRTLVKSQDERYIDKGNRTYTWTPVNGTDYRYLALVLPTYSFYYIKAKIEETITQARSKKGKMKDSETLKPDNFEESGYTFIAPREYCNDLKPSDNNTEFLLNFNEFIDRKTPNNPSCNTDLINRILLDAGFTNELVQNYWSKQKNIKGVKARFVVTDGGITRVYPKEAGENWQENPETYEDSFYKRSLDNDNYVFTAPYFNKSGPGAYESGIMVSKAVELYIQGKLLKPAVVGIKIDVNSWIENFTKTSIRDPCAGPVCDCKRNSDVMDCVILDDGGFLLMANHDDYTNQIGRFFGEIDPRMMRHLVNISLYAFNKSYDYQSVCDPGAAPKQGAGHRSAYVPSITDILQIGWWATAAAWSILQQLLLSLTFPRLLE
# T1 sequence (P54290 945-1091 partner limits assumed): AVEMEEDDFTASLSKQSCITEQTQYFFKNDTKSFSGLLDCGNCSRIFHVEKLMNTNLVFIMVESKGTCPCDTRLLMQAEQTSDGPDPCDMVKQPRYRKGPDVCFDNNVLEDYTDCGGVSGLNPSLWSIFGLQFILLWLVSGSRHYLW
compound,measurement,setting,value
C[C@H](CS)C(=O)N1CCC[C@H]1C(=O)O [Captopril],active in the hypertensive rat assay,[1],active
"COc1ccc2c(c1)CC(N(C)CCCC(C#N)(c1ccc(OC)c(OC)c1)C(C)C)CC2.O=C(O)CC(O)(CC(=O)O)C(=O)O (stereo not drawn) [Example 12, 3,4-dimethoxy-α-(1-methylethyl)-α-[3-[N-methyl-N-(1,2,3,4-tetrahydro-7-methoxy-2-naphthalenyl)amino]propyl]phenylacetonitrile, citrate (1:1)]",SHR -mmHg intravenous (mg/kg),[2]; 1.0 mg/kg,-20 mmHg
same,Kb,[3],39.8 nM
COC(=O)C1=C(C)NC(C)=C(C(=O)OC)C1c1ccccc1[N+](=O)[O-] [nifedipine],active in vascular calcium antagonism test,[4],active
"COc1ccc([C@@H]2Sc3ccccc3N(CCN(C)C)C(=O)[C@@H]2OC(C)=O)cc1 [diltiazem, reference compound]",maximum hypotensive effect,anesthetized beagle dogs,approximately the same maximum hypotensive effect
same,selectivity ratio,in vivo; [7],0.53
same,selectivity ratio,in vivo; [8],0.53
same,active in vascular calcium antagonism test,[4],active
"COc1ccc(CCN(C)CCCC(C#N)(c2ccc(OC)c(OC)c2)C(C)C)cc1OC (stereo not drawn) [verapamil, α[3-[[2-(3,4-dimethoxyphenyl)ethyl]methylamino]propyl]-3,4-dimethoxy-α-(1-methylethyl)hydrochloride, reference compound]",duration of antihypertensive effect,[2]; [9],6 h
same,duration of antihypertensive effect,[2]; [10],14 h
same,SHR -mmHg intravenous (mg/kg),[2]; 0.3 mg/kg,-30 mmHg
same,maximum hypotensive effect,anesthetized beagle dogs,approximately the same maximum hypotensive effect
Clc1cccc(Cl)c1N=C1NCCN1 [Clonidine],active in the hypertensive rat assay,[1],active
"COc1ccc(C(C#N)(CCCN(C)C2CCc3ccccc3C2)C(C)C)cc1OC.O=C(O)CC(O)(CC(=O)O)C(=O)O (stereo not drawn) [Example 8, 3,4-dimethoxy-α-(1-methylethyl)-α-[3-[N-methyl-N-(1,2,3,4-tetrahydro-2-naphthalenyl)amino]propyl]phenylacetonitrile, citrate (1:1)]",duration of antihypertensive effect,[2]; [9],approximately 12 hours
same,duration of antihypertensive effect,[2]; [10],> 24 h
same,SHR -mmHg intravenous (mg/kg),[2]; 0.1 mg/kg,-30 mmHg
same,Kb,[3],50.1 nM
same,slope of the dose-blood pressure response curve,anesthetized beagle dogs; compared to verapamil and diltiazem,not as steep
same,therapeutic ratio for atrial-ventricular block and bradycardia,[5],more favorable therapeutic ratio for atrial-ventricular block and bradycardia than verapamil or diltiazem
same,selectivity ratio,in vivo; [7],4
same,selectivity ratio,in vivo; [8],3.1
"COc1ccc(C(C#N)(CCCN(C)C2CCc3cc(OC)c(OC)cc3C2)C(C)C)cc1OC.O=C(O)CC(O)(CC(=O)O)C(=O)O (stereo not drawn) [Example 9, 3,4-dimethoxy-α-(1-methylethyl)-α-[3-[N-methyl-N-(1,2,3,4-tetrahydro-6,7-dimethoxy-2-naphthalenyl)amino]propyl]phenylacetonitrile, citrate (1:1)]",SHR -mmHg intravenous (mg/kg),[2]; 3.0 mg/kg,-30 mmHg
same,Kb,[3],126 nM
"CCCCCCCCCCCCC(C#N)(CCCN(C)CCc1cccc(OC)c1)c1cccc(OC)c1 (stereo not drawn) [Anipamil, 2-(3-methoxyphenyl)-2[3-[N-[2-(3-methoxyphenyl)ethyl]methylamino]propyl]tetradecanenitrile]",calcium ion antagonist activity,[6],calcium ion antagonist activity analogous to verapamil hydrochloride
NNc1nncc2ccccc12 [Apresoline],active in the hypertensive rat assay,[1],active
"COc1ccc(C(C#N)(CCCN(C)C2CCc3c(cccc3OC)C2)C(C)C)cc1OC.O=C(O)CC(O)(CC(=O)O)C(=O)O (stereo not drawn) [Example 11, 3,4-dimethoxy-α-(1-methylethyl)-α-[3-[N-methyl-N-(1,2,3,4-tetrahydro-5-methoxy-2-naphthalenyl)amino]propyl]phenylacetonitrile, citrate (1:1)]",SHR -mmHg intravenous (mg/kg),[2]; 1.0 mg/kg,-29 mmHg
same,Kb,[3],50.1 nM
C[C@](N)(Cc1ccc(O)c(O)c1)C(=O)O [Aldomet],active in the hypertensive rat assay,[1],active
"COc1ccc2c(c1)CCC(N(C)CCCC(C#N)(c1ccc(OC)c(OC)c1)C(C)C)C2.O=C(O)CC(O)(CC(=O)O)C(=O)O (stereo not drawn) [Example 10, 3,4-dimethoxy-α-(1-methylethyl)-α-[3-[N-methyl-N-(1,2,3,4-tetrahydro-6-methoxy-2-naphthalenyl)amino]propyl]phenylacetonitrile, citrate (1:1)]",SHR -mmHg intravenous (mg/kg),[2]; 3.0 mg/kg,-24 mmHg
same,Kb,[3],25.1 nM
